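Five compound concentrations were applied to cells in 96-well plates for 48 hours; endpoints were derived by simple linear interpolation of the resulting dose-response curve. At the TGI there is no net growth.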
Legend:
Assay in all cases: NCI anticancer screen, dose series, 48 h
EKVX NSCLC = tested on: EKVX NSCLC
HOP-62 NSCLC = tested on: HOP-62 NSCLC
IGROV1 ovarian = tested on: IGROV1 ovarian
MOLT-4 leukemia = tested on: MOLT-4 leukemia
RPMI-8226 leukemia = tested on: RPMI-8226 leukemia
HCT-116 colon = tested on: HCT-116 colon
OVCAR-4 ovarian = tested on: OVCAR-4 ovarian
MDA-N = tested on: MDA-N
KM12 colon = tested on: KM12 colon
SK-MEL-2 melanoma = tested on: SK-MEL-2 melanoma
TK-10 renal = tested on: TK-10 renal
786-0 renal = tested on: 786-0 renal
ACHN renal = tested on: ACHN renal
LOX IMVI melanoma = tested on: LOX IMVI melanoma
A549 NSCLC = tested on: A549 NSCLC
HT29 colon = tested on: HT29 colon
MDA-MB-231 breast = tested on: MDA-MB-231 breast
HOP-92 NSCLC = tested on: HOP-92 NSCLC
T-47D breast = tested on: T-47D breast
NCI-H460 lung = tested on: NCI-H460 lung
NCI/ADR-RES ovarian = tested on: NCI/ADR-RES ovarian
PC-3 prostate = tested on: PC-3 prostate
OVCAR-5 ovarian = tested on: OVCAR-5 ovarian
SNB-19 CNS = tested on: SNB-19 CNS
HS 578T breast = tested on: HS 578T breast
U251 CNS = tested on: U251 CNS
SW-620 colon = tested on: SW-620 colon
UACC-257 melanoma = tested on: UACC-257 melanoma
HCT-15 colon = tested on: HCT-15 colon
RXF 393 renal = tested on: RXF 393 renal
NCI-H226 lung = tested on: NCI-H226 lung
SR leukemia = tested on: SR leukemia
COLO 205 colon = tested on: COLO 205 colon
HCC-2998 colon = tested on: HCC-2998 colon
HL-60(TB) leukemia = tested on: HL-60(TB) leukemia
NCI-H522 lung = tested on: NCI-H522 lung
SK-MEL-5 melanoma = tested on: SK-MEL-5 melanoma
MCF7 breast = tested on: MCF7 breast
UACC-62 melanoma = tested on: UACC-62 melanoma
MALME-3M melanoma = tested on: MALME-3M melanoma
A498 renal = tested on: A498 renal
SF-295 CNS = tested on: SF-295 CNS
SK-OV-3 ovarian = tested on: SK-OV-3 ovarian
UO-31 renal = tested on: UO-31 renal
BT-549 breast = tested on: BT-549 breast
SK-MEL-28 melanoma = tested on: SK-MEL-28 melanoma
SF-539 CNS = tested on: SF-539 CNS
DU-145 prostate = tested on: DU-145 prostate
CAKI-1 renal = tested on: CAKI-1 renal
K-562 leukemia = tested on: K-562 leukemia
OVCAR-3 ovarian = tested on: OVCAR-3 ovarian
SN12C renal = tested on: SN12C renal
SF-268 CNS = tested on: SF-268 CNS
CCRF-CEM leukemia = tested on: CCRF-CEM leukemia
NCI-H23 lung = tested on: NCI-H23 lung
OVCAR-8 ovarian = tested on: OVCAR-8 ovarian
M14 melanoma = tested on: M14 melanoma
MDA-MB-435 = tested on: MDA-MB-435
SNB-75 CNS = tested on: SNB-75 CNS

Structure (SMILES): CCCCCCc1nn2c(-c3ccncc3)nnc2s1
- TGI (EKVX NSCLC): > 10 µM
- TGI (HOP-62 NSCLC): > 10 µM
- TGI (IGROV1 ovarian): > 10 µM
- TGI (MOLT-4 leukemia): > 10 µM
- TGI (RPMI-8226 leukemia): > 10 µM
- TGI (HCT-116 colon): > 10 µM
- TGI (OVCAR-4 ovarian): > 10 µM
- TGI (MDA-N): > 10 µM
- TGI (KM12 colon): > 10 µM
- TGI (SK-MEL-2 melanoma): > 10 µM
- TGI (TK-10 renal): > 10 µM
- TGI (786-0 renal): > 10 µM
- TGI (ACHN renal): > 10 µM
- TGI (LOX IMVI melanoma): > 10 µM
- TGI (A549 NSCLC): > 10 µM
- TGI (HT29 colon): > 10 µM
- TGI (MDA-MB-231 breast): > 10 µM
- TGI (HOP-92 NSCLC): > 10 µM
- TGI (T-47D breast): > 10 µM
- TGI (NCI-H460 lung): > 10 µM
- TGI (NCI/ADR-RES ovarian): > 10 µM
- TGI (PC-3 prostate): > 10 µM
- TGI (OVCAR-5 ovarian): > 10 µM
- TGI (SNB-19 CNS): > 10 µM
- TGI (HS 578T breast): > 10 µM
- TGI (U251 CNS): > 10 µM
- TGI (SW-620 colon): > 10 µM
- TGI (UACC-257 melanoma): > 10 µM
- TGI (HCT-15 colon): > 10 µM
- TGI (RXF 393 renal): > 10 µM
- TGI (NCI-H226 lung): > 10 µM
- TGI (SR leukemia): > 10 µM
- TGI (COLO 205 colon): > 10 µM
- TGI (HCC-2998 colon): > 10 µM
- TGI (HL-60(TB) leukemia): > 10 µM
- TGI (NCI-H522 lung): > 10 µM
- TGI (SK-MEL-5 melanoma): > 10 µM
- TGI (MCF7 breast): > 10 µM
- TGI (UACC-62 melanoma): > 10 µM
- TGI (MALME-3M melanoma): > 10 µM
- TGI (A498 renal): > 10 µM
- TGI (SF-295 CNS): > 10 µM
- TGI (SK-OV-3 ovarian): > 10 µM
- TGI (UO-31 renal): 2.89 µM
- TGI (BT-549 breast): > 10 µM
- TGI (SK-MEL-28 melanoma): > 10 µM
- TGI (SF-539 CNS): > 10 µM
- TGI (DU-145 prostate): > 10 µM
- TGI (CAKI-1 renal): > 10 µM
- TGI (K-562 leukemia): > 10 µM
- TGI (OVCAR-3 ovarian): > 10 µM
- TGI (SN12C renal): > 10 µM
- TGI (SF-268 CNS): > 10 µM
- TGI (CCRF-CEM leukemia): > 10 µM
- TGI (NCI-H23 lung): > 10 µM
- TGI (OVCAR-8 ovarian): > 10 µM
- TGI (M14 melanoma): > 10 µM
- TGI (MDA-MB-435): > 10 µM

Structure (SMILES): COC(=O)C1CC2C=CC1N(C(=O)OCc1ccccc1)C2 (stereo unspecified)
- TGI (EKVX NSCLC): > 100 µM
- TGI (HOP-62 NSCLC): > 100 µM
- TGI (IGROV1 ovarian): > 100 µM
- TGI (MOLT-4 leukemia): > 100 µM
- TGI (RPMI-8226 leukemia): > 100 µM
- TGI (HCT-116 colon): > 100 µM
- TGI (OVCAR-4 ovarian): > 100 µM
- TGI (MDA-N): > 100 µM
- TGI (KM12 colon): > 100 µM
- TGI (SK-MEL-2 melanoma): > 100 µM
- TGI (TK-10 renal): > 100 µM
- TGI (786-0 renal): > 100 µM
- TGI (ACHN renal): > 100 µM
- TGI (LOX IMVI melanoma): > 100 µM
- TGI (A549 NSCLC): > 100 µM
- TGI (HT29 colon): > 100 µM
- TGI (MDA-MB-231 breast): > 100 µM
- TGI (T-47D breast): > 100 µM
- TGI (NCI-H460 lung): > 100 µM
- TGI (NCI/ADR-RES ovarian): > 100 µM
- TGI (PC-3 prostate): > 100 µM
- TGI (OVCAR-5 ovarian): > 100 µM
- TGI (SNB-75 CNS): > 100 µM
- TGI (SNB-19 CNS): > 100 µM
- TGI (HS 578T breast): > 100 µM
- TGI (U251 CNS): > 100 µM
- TGI (SW-620 colon): > 100 µM
- TGI (UACC-257 melanoma): > 100 µM
- TGI (HCT-15 colon): > 100 µM
- TGI (RXF 393 renal): > 100 µM
- TGI (NCI-H226 lung): > 100 µM
- TGI (SR leukemia): > 100 µM
- TGI (COLO 205 colon): > 100 µM
- TGI (HCC-2998 colon): > 100 µM
- TGI (HL-60(TB) leukemia): > 100 µM
- TGI (NCI-H522 lung): 43.5 µM
- TGI (SK-MEL-5 melanoma): > 100 µM
- TGI (MCF7 breast): > 100 µM
- TGI (UACC-62 melanoma): > 100 µM
- TGI (MALME-3M melanoma): > 100 µM
- TGI (A498 renal): > 100 µM
- TGI (SF-295 CNS): > 100 µM
- TGI (SK-OV-3 ovarian): > 100 µM
- TGI (UO-31 renal): > 100 µM
- TGI (BT-549 breast): > 100 µM
- TGI (SK-MEL-28 melanoma): > 100 µM
- TGI (SF-539 CNS): > 100 µM
- TGI (DU-145 prostate): > 100 µM
- TGI (CAKI-1 renal): > 100 µM
- TGI (K-562 leukemia): > 100 µM
- TGI (OVCAR-3 ovarian): > 100 µM
- TGI (SN12C renal): > 100 µM
- TGI (SF-268 CNS): > 100 µM
- TGI (CCRF-CEM leukemia): > 100 µM
- TGI (NCI-H23 lung): > 100 µM
- TGI (OVCAR-8 ovarian): > 100 µM
- TGI (M14 melanoma): > 100 µM
- TGI (MDA-MB-435): > 100 µM

Structure (SMILES): CC1CCC2(NC1)OC1CC3C4CCC5CC(OC6OC(CO)C(OC7OC(CO)C(O)C(OC8OCC(O)C(O)C8O)C7OC7OC(CO)C(O)C(O)C7O)C(O)C6O)CCC5(C)C4CCC3(C)C1C2C (stereo unspecified)
- TGI (EKVX NSCLC): 2.37 µM
- TGI (HOP-62 NSCLC): 3.68 µM
- TGI (IGROV1 ovarian): 1.86 µM
- TGI (RPMI-8226 leukemia): 4.01 µM
- TGI (HCT-116 colon): 6.98 µM
- TGI (OVCAR-4 ovarian): 3.1 µM
- TGI (MDA-N): 1.02 µM
- TGI (KM12 colon): 4.64 µM
- TGI (SK-MEL-2 melanoma): 3.75 µM
- TGI (TK-10 renal): 3.4 µM
- TGI (ACHN renal): 4.82 µM
- TGI (LOX IMVI melanoma): > 100 µM
- TGI (A549 NSCLC): 4.99 µM
- TGI (HT29 colon): 3.26 µM
- TGI (MDA-MB-231 breast): 3.4 µM
- TGI (T-47D breast): 5.07 µM
- TGI (NCI-H460 lung): 4.16 µM
- TGI (NCI/ADR-RES ovarian): 3.93 µM
- TGI (PC-3 prostate): 1.05 µM
- TGI (OVCAR-5 ovarian): 2.73 µM
- TGI (SNB-75 CNS): 3.56 µM
- TGI (SNB-19 CNS): 3.38 µM
- TGI (HS 578T breast): 3.85 µM
- TGI (U251 CNS): 3.07 µM
- TGI (SW-620 colon): 3.94 µM
- TGI (UACC-257 melanoma): 4.65 µM
- TGI (NCI-H226 lung): 3.72 µM
- TGI (SR leukemia): > 100 µM
- TGI (COLO 205 colon): 4 µM
- TGI (HCC-2998 colon): 2.78 µM
- TGI (HL-60(TB) leukemia): 4.93 µM
- TGI (NCI-H522 lung): 3.12 µM
- TGI (SK-MEL-5 melanoma): 3.56 µM
- TGI (MCF7 breast): 6.3 µM
- TGI (UACC-62 melanoma): 2.65 µM
- TGI (MALME-3M melanoma): 2.83 µM
- TGI (A498 renal): 3.75 µM
- TGI (SF-295 CNS): 2.32 µM
- TGI (UO-31 renal): 2.69 µM
- TGI (BT-549 breast): 5.97 µM
- TGI (SK-MEL-28 melanoma): 3.46 µM
- TGI (DU-145 prostate): 3.46 µM
- TGI (CAKI-1 renal): 2.11 µM
- TGI (K-562 leukemia): > 21.2 µM
- TGI (OVCAR-3 ovarian): 3.12 µM
- TGI (SN12C renal): 3.32 µM
- TGI (SF-268 CNS): 3.32 µM
- TGI (CCRF-CEM leukemia): > 22 µM
- TGI (M14 melanoma): 3.02 µM
- TGI (MDA-MB-435): 3.03 µM
